From ChEMBL document CHEMBL1135923, “Conceptually new low-calcemic oxime analogues of the hormone 1 alpha,25-dihydroxyvitamin D(3): synthesis and biological testing” (J Med Chem, 2002)

Assays:
[1] = biological target: T1, Vitamin D3 receptor (Rattus norvegicus) (UniProt P13053); test: Percent relative binding affinity for vitamin D receptor VDR; assay type: functional
T1 sequence (whole entry): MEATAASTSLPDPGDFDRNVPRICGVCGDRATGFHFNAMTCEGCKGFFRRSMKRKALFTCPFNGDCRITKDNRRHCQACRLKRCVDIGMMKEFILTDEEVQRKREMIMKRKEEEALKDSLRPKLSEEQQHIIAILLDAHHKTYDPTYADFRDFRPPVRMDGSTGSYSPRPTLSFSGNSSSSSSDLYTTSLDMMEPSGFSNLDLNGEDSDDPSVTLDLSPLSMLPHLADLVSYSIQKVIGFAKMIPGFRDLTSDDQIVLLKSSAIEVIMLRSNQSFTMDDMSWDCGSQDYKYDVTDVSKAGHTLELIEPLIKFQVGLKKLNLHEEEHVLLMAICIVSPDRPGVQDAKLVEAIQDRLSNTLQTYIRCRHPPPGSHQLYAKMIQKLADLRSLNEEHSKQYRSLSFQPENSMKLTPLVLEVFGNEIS

[2] = biological target: T1, Vitamin D3 receptor (Rattus norvegicus); test: In vitro vitamin D receptor-mediated transcriptional activity in rat osteosarcoma ROS 17/2.8 cells

Structure (SMILES): C=C1/C(=C\C=C2/CCC[C@]3(C)C([C@H](C)CCCC(=O)C(C)(C)C)=CC[C@@H]23)C[C@H](O)C[C@H]1O
- RBA [1]: 35%
- ED50 [2]: 0.1 nM

Structure (SMILES): C=C1/C(=C\C=C2/CCC[C@]3(C)C([C@H](C)CCC/C(=N\OC)C(C)(C)C)=CC[C@@H]23)C[C@H](O)C[C@H]1O
- RBA [1]: < 3%
- ED50 [2]: 2 nM

Structure (SMILES): C=C1/C(=C\C=C2/CCC[C@]3(C)[C@@H]([C@H](C)CCCC(C)(C)O)CC[C@@H]23)C[C@@H](O)C[C@@H]1O
- ED50 [2]: 0.4 nM

Structure (SMILES): C=C1/C(=C\C=C2/CCC[C@]3(C)C([C@H](C)CCC/C(=N\O)C(C)(C)C)=CC[C@@H]23)C[C@H](O)C[C@H]1O
- RBA [1]: 3%
- ED50 [2]: 10 nM
